# Measurements from ChEMBL document CHEMBL5352410, “Discovery of novel selenium-containing azole derivatives as antifungal agents by exploiting the hydrophobic cleft of CYP51” (Eur J Med Chem, 2022).
# Assays:
# Candida albicans [1] = test: Antifungal activity against FCZ-resistant Candida albicans CaR by CLSI based broth microdilution method; format: functional
# Candida albicans [2] = test: Antifungal activity against FCZ-resistant Candida albicans 17# by CLSI based broth microdilution method; format: functional
# Candida albicans [3] = test: Antifungal activity against FCZ-resistant Candida albicans 632 by CLSI based broth microdilution method; format: functional
# Candida albicans [4] = test: Antifungal activity against FCZ-resistant Candida albicans 901 by CLSI based broth microdilution method; format: functional
# Candida albicans [5] = test: Antifungal activity against FCZ-resistant Candida albicans 904 by CLSI based broth microdilution method; format: functional
# Candida albicans [6] = test: Fungicidal activity against Candida albicans; format: functional
# Candida albicans [7] = test: Fungicidal activity against Candida albicans sc5314; format: functional
# Candida albicans [8] = test: Fungicidal activity against FCZ-resistant Candida albicans CaR; format: functional
# Candida albicans [9] = test: Fungicidal activity against FCZ-resistant Candida albicans 17#; format: functional
# Candida albicans [10] = test: Fungicidal activity against FCZ-resistant Candida albicans 632; format: functional
# Candida albicans [11] = test: Fungicidal activity against FCZ-resistant Candida albicans 901; format: functional
# Candida albicans [12] = test: Fungicidal activity against FCZ-resistant Candida albicans 904; format: functional
# Candida albicans [13] = test: Antifungal activity against Candida albicans sc5314 by CLSI based broth microdilution method; format: functional
# Candida albicans [14] = test: Antifungal activity against Candida albicans by CLSI based broth microdilution method; format: functional
# Nakaseomyces glabratus = test: Antifungal activity against Candida glabrata by CLSI based broth microdilution method; format: functional
# Candida parapsilosis = test: Antifungal activity against Candida parapsilosis by CLSI based broth microdilution method; format: functional; details: Lodderomyces parapsilosis
# Pichia kudriavzevii = test: Antifungal activity against Pichia kudriavzevii by CLSI based broth microdilution method; format: functional
# [Candida] zeylanoides = Antifungal activity against Candida zeylanoides by CLSI based broth microdilution method; format: functional; details: Dujonia zeylanoides
# Cryptococcus neoformans = test: Antifungal activity against Cryptococcus neoformans by CLSI based broth microdilution method; format: functional
# Aspergillus fumigatus = test: Antifungal activity against Aspergillus fumigatus by CLSI based broth microdilution method; format: functional
# Candida albicans [15] = test: Antibiofilm activity against Candida albicans SC5314 assessed as sessile minimum inhibitory concentration measured after 1.5 hrs by XTT assay; format: functional
# Candida albicans [16] = test: Antibiofilm activity against Candida albicans SC5314 assessed as sessile minimum inhibitory concentration measured after 3 hrs by XTT assay; format: functional
# Candida albicans [17] = test: Antibiofilm activity against Candida albicans SC5314 assessed as sessile minimum inhibitory concentration measured after 6 hrs by XTT assay; format: functional
# Candida albicans [18] = test: Antibiofilm activity against Candida albicans SC5314 assessed as sessile minimum inhibitory concentration measured after 24 hrs by XTT assay; format: functional
# Candida albicans [19] = test: Antibiofilm activity against Candida albicans CPCC400616 assessed as sessile minimum inhibitory concentration measured after 1.5 hrs by XTT assay; format: functional
# Candida albicans [20] = test: Antibiofilm activity against Candida albicans CPCC400616 assessed as sessile minimum inhibitory concentration measured after 3 hrs by XTT assay; format: functional
# Candida albicans [21] = test: Antibiofilm activity against Candida albicans CPCC400616 assessed as sessile minimum inhibitory concentration measured after 6 hrs by XTT assay; format: functional
# Candida albicans [22] = test: Antibiofilm activity against Candida albicans CPCC400616 assessed as sessile minimum inhibitory concentration measured after 24 hrs by XTT assay; format: functional
# [23] = Cytotoxicity against human HL-60 cells by MTT assay; format: toxicity, cell-based
# [24] = Cytotoxicity against human MDA-MB-231 cells by MTT assay; format: toxicity, cell-based
# [25] = Cytotoxicity against human PC-3 cells by MTT assay; format: toxicity, cell-based
# [26] = Metabolic stability in mouse liver microsome assessed as half life; format: ADME; details: liver microsomes
# [27] = Metabolic stability in mouse liver microsome assessed as clearance; format: ADME; details: liver microsomes, read-out: CLH
smiles,measurement,setting,value
Fc1ccc(C(Cn2ccnc2)[Se][Se]C(Cn2ccnc2)c2ccc(F)cc2)cc1 (stereo not drawn),MIC,Candida albicans [1],4 µg/mL
same,MIC,Candida albicans [2],32 µg/mL
same,MIC,Candida albicans [3],64 µg/mL
same,MIC,Candida albicans [4],16 µg/mL
same,MIC,Candida albicans [5],64 µg/mL
same,MFC,Candida albicans [6],> 64 µg/mL
same,MFC,Candida albicans [7],> 64 µg/mL
same,MFC,Candida albicans [8],> 64 µg/mL
same,MFC,Candida albicans [9],> 64 µg/mL
same,MFC,Candida albicans [10],> 64 µg/mL
same,MFC,Candida albicans [11],32 µg/mL
same,MFC,Candida albicans [12],64 µg/mL
c1ccc(C(Cn2ccnc2)[Se]C(Cn2ccnc2)c2ccccc2)cc1 (stereo not drawn),MIC,Candida albicans [13],4 µg/mL
same,MIC,Candida albicans [14],8 µg/mL
same,MIC,Nakaseomyces glabratus,16 µg/mL
same,MIC,Candida parapsilosis,4 µg/mL
same,MIC,Pichia kudriavzevii,16 µg/mL
same,MIC,[Candida] zeylanoides,4 µg/mL
same,MIC,Cryptococcus neoformans,64 µg/mL
same,MIC,Aspergillus fumigatus,> 64 µg/mL
same,MIC,Candida albicans [1],4 µg/mL
same,MIC,Candida albicans [2],0.5 µg/mL
same,MIC,Candida albicans [3],8 µg/mL
same,MIC,Candida albicans [4],8 µg/mL
same,MIC,Candida albicans [5],4 µg/mL
same,MFC,Candida albicans [6],64 µg/mL
same,MFC,Candida albicans [7],8 µg/mL
same,MFC,Candida albicans [8],> 64 µg/mL
same,MFC,Candida albicans [9],> 64 µg/mL
same,MFC,Candida albicans [10],16 µg/mL
same,MFC,Candida albicans [11],16 µg/mL
same,MFC,Candida albicans [12],8 µg/mL
c1ccc(C(Cn2ccnc2)[Se][Se]C(Cn2ccnc2)c2ccccc2)cc1 (stereo not drawn),MIC,Candida albicans [1],2 µg/mL
same,MIC,Candida albicans [2],> 64 µg/mL
same,MIC,Candida albicans [3],8 µg/mL
same,MIC,Candida albicans [4],4 µg/mL
same,MIC,Candida albicans [5],8 µg/mL
same,MFC,Candida albicans [6],64 µg/mL
same,MFC,Candida albicans [7],16 µg/mL
same,MFC,Candida albicans [8],> 64 µg/mL
same,MFC,Candida albicans [9],> 64 µg/mL
same,MFC,Candida albicans [10],16 µg/mL
same,MFC,Candida albicans [11],8 µg/mL
same,MFC,Candida albicans [12],8 µg/mL
Fc1ccc(C(Cn2ccnc2)[Se][Se]C(Cn2ccnc2)c2ccc(F)cc2F)c(F)c1 (stereo not drawn),MIC,Candida albicans [1],4 µg/mL
same,MIC,Candida albicans [2],8 µg/mL
same,MIC,Candida albicans [3],8 µg/mL
same,MIC,Candida albicans [4],4 µg/mL
same,MIC,Candida albicans [5],8 µg/mL
same,MFC,Candida albicans [6],32 µg/mL
same,MFC,Candida albicans [7],16 µg/mL
same,MFC,Candida albicans [8],> 64 µg/mL
same,MFC,Candida albicans [9],> 64 µg/mL
same,MFC,Candida albicans [10],16 µg/mL
same,MFC,Candida albicans [11],8 µg/mL
same,MFC,Candida albicans [12],8 µg/mL
Cc1ccc(C(Cn2ccnc2)[Se][Se]C(Cn2ccnc2)c2ccc(C)cc2)cc1 (stereo not drawn),MIC,Candida albicans [1],2 µg/mL
same,MIC,Candida albicans [2],32 µg/mL
same,MIC,Candida albicans [3],4 µg/mL
same,MIC,Candida albicans [4],4 µg/mL
same,MIC,Candida albicans [5],4 µg/mL
same,MFC,Candida albicans [6],64 µg/mL
same,MFC,Candida albicans [7],8 µg/mL
same,MFC,Candida albicans [8],> 64 µg/mL
same,MFC,Candida albicans [9],> 64 µg/mL
same,MFC,Candida albicans [10],8 µg/mL
same,MFC,Candida albicans [11],8 µg/mL
same,MFC,Candida albicans [12],8 µg/mL
same,MIC50,Candida albicans [15],1 µg/mL
same,MIC80,Candida albicans [15],4 µg/mL
same,MIC50,Candida albicans [16],2 µg/mL
same,MIC80,Candida albicans [16],4 µg/mL
same,MIC50,Candida albicans [17],2 µg/mL
same,MIC80,Candida albicans [17],8 µg/mL
same,MIC50,Candida albicans [18],2 µg/mL
same,MIC80,Candida albicans [18],4 µg/mL
same,MIC50,Candida albicans [19],1 µg/mL
same,MIC80,Candida albicans [19],8 µg/mL
same,MIC50,Candida albicans [20],2 µg/mL
same,MIC80,Candida albicans [20],8 µg/mL
same,MIC50,Candida albicans [21],1 µg/mL
same,MIC80,Candida albicans [21],32 µg/mL
same,MIC50,Candida albicans [22],4 µg/mL
same,MIC80,Candida albicans [22],128 µg/mL
same,IC50,[23],14.7 µM
same,IC50,[24],5.04 µM
same,IC50,[25],7.43 µM
same,half-life,[26],21.2 min
same,CLint scaled,[27],68.9 mL/min/kg
CC(=O)O[C@H]1C(=O)[C@@]2(C)[C@H]([C@H](OC(=O)c3ccccc3)[C@]3(O)C[C@H](OC(=O)[C@H](O)[C@@H](NC(=O)c4ccccc4)c4ccccc4)C(C)=C1C3(C)C)[C@]1(OC(C)=O)CO[C@@H]1C[C@@H]2O [PACLITAXEL],IC50,[25],< 0.025 µM
Fc1ccc(C(Cn2cncn2)[Se]C(Cn2cncn2)c2ccc(F)cc2F)c(F)c1 (stereo not drawn),MIC,Candida albicans [13],4 µg/mL
same,MIC,Candida albicans [14],64 µg/mL
same,MIC,Nakaseomyces glabratus,> 64 µg/mL
same,MIC,Candida parapsilosis,> 64 µg/mL
same,MIC,Pichia kudriavzevii,> 64 µg/mL
same,MIC,[Candida] zeylanoides,8 µg/mL
same,MIC,Cryptococcus neoformans,4 µg/mL
same,MIC,Aspergillus fumigatus,> 64 µg/mL
same,MIC,Candida albicans [1],32 µg/mL
same,MIC,Candida albicans [2],8 µg/mL
same,MIC,Candida albicans [3],32 µg/mL
same,MIC,Candida albicans [4],16 µg/mL
same,MIC,Candida albicans [5],16 µg/mL
